Data published in ChEMBL document CHEMBL3885881, “DrugMatrix”.

Organism: Rattus norvegicus
Assay: DrugMatrix - Regimen: Daily Repeat
Type: toxicity, organism-based, Sprague-Dawley
Design: regimen Daily Repeat, gender Male, age 6-8 weeks
Conditions: in vivo, po, 600 mg/kg, route oral GAVAGE, dose level High, vehicle .5 % CMC; for ABSOLUTE BASOPHIL / ABSOLUTE EOSINOPHIL / ABSOLUTE LYMPHOCYTE / ABSOLUTE MONOCYTE / ABSOLUTE SEGMENTED NEUTROPHIL / BASOPHIL / EOSINOPHIL / ERYTHROCYTE COUNT / HEMATOCRIT / HEMOGLOBIN / LEUKOCYTE COUNT / LYMPHOCYTE / MEAN CORPUSCULAR HEMOGLOBIN / MEAN CORPUSCULAR HEMOGLOBIN CONCENTRATION / MONOCYTE / NEUTROPHIL / NUCLEATED RED BLOOD CELLS / PLATELET COUNT: tissue Blood; for ALANINE AMINOTRANSFERASE / ALBUMIN / ALKALINE PHOSPHATASE / ASPARTATE AMINOTRANSFERASE / BLOOD UREA NITROGEN / CARBON DIOXIDE / CHLORIDE / CHOLESTEROL / CREATININE / GLUCOSE / LACTATE DEHYDROGENASE / LIPASE / PHOSPHORUS / POTASSIUM / SODIUM / TOTAL BILIRUBIN / TOTAL PROTEIN / URIC ACID: tissue Plasma

N[C@@H]1[C@H]2CN(c3nc4c(cc3F)c(=O)c(C(=O)O)cn4-c3ccc(F)cc3F)C[C@@H]12 [TROVAFLOXACIN]
ABSOLUTE BASOPHIL (72 h, time 3 day): 0 CELLS/uL
ABSOLUTE EOSINOPHIL (72 h, time 3 day): 206 CELLS/uL
ABSOLUTE LYMPHOCYTE (72 h, time 3 day): 11774.33 CELLS/uL
ABSOLUTE MONOCYTE (72 h, time 3 day): 306 CELLS/uL
ABSOLUTE SEGMENTED NEUTROPHIL (72 h, time 3 day): 3013.67 CELLS/uL
BASOPHIL (72 h, time 3 day): 0%
EOSINOPHIL (72 h, time 3 day): 1.33%
ERYTHROCYTE COUNT (72 h, time 3 day): 5.75 x10E6/uL
HEMATOCRIT (72 h, time 3 day): 34.53%
HEMOGLOBIN (72 h, time 3 day): 12.7 G/DL
LEUKOCYTE COUNT (72 h, time 3 day): 15.3 x10E3/uL
LYMPHOCYTE (72 h, time 3 day): 78.33%
MEAN CORPUSCULAR HEMOGLOBIN (72 h, time 3 day): 22.13 pg
MEAN CORPUSCULAR HEMOGLOBIN CONCENTRATION (72 h, time 3 day): 36.77 G/DL
MONOCYTE (72 h, time 3 day): 2%
NEUTROPHIL (72 h, time 3 day): 18.33%
NUCLEATED RED BLOOD CELLS (72 h, time 3 day): 0 /100WBC
PLATELET COUNT (72 h, time 3 day): 1258 x10E3/uL
ALANINE AMINOTRANSFERASE (72 h, time 3 day): 35.33 u/L
ALBUMIN (72 h, time 3 day): 4.27 G/DL
ALKALINE PHOSPHATASE (72 h, time 3 day): 290.67 u/L
ASPARTATE AMINOTRANSFERASE (72 h, time 3 day): 69.67 u/L
BLOOD UREA NITROGEN (72 h, time 3 day): 19.67 mg/dL
CARBON DIOXIDE (72 h, time 3 day): 25.33 mmol/L
CHLORIDE (72 h, time 3 day): 106.33 MEQ/L
CHOLESTEROL (72 h, time 3 day): 81.33 mg/dL
CREATININE (72 h, time 3 day): 0.16 mg/dL
GLUCOSE (72 h, time 3 day): 145 mg/dL
LACTATE DEHYDROGENASE (72 h, time 3 day): 197 u/L
LIPASE (72 h, time 3 day): 9.33 u/L
PHOSPHORUS (72 h, time 3 day): 13.8 mg/dL
POTASSIUM (72 h, time 3 day): 6.71 MEQ/L
SODIUM (72 h, time 3 day): 151.87 MEQ/L
TOTAL BILIRUBIN (72 h, time 3 day): 0.17 mg/dL
TOTAL PROTEIN (72 h, time 3 day): 6.43 G/DL
URIC ACID (72 h, time 3 day): 1.63 mg/dL
ABSOLUTE BASOPHIL (120 h, time 5 day): 0 CELLS/uL
ABSOLUTE EOSINOPHIL (120 h, time 5 day): 229.8 CELLS/uL
ABSOLUTE LYMPHOCYTE (120 h, time 5 day): 12826.8 CELLS/uL
ABSOLUTE MONOCYTE (120 h, time 5 day): 343 CELLS/uL
ABSOLUTE SEGMENTED NEUTROPHIL (120 h, time 5 day): 1100.4 CELLS/uL
BASOPHIL (120 h, time 5 day): 0%
EOSINOPHIL (120 h, time 5 day): 1.6%
ERYTHROCYTE COUNT (120 h, time 5 day): 5.94 x10E6/uL
HEMATOCRIT (120 h, time 5 day): 35.56%
HEMOGLOBIN (120 h, time 5 day): 12.98 G/DL
LEUKOCYTE COUNT (120 h, time 5 day): 14.5 x10E3/uL
LYMPHOCYTE (120 h, time 5 day): 88.4%
MEAN CORPUSCULAR HEMOGLOBIN (120 h, time 5 day): 21.88 pg
MEAN CORPUSCULAR HEMOGLOBIN CONCENTRATION (120 h, time 5 day): 36.5 G/DL
MONOCYTE (120 h, time 5 day): 2.4%
NEUTROPHIL (120 h, time 5 day): 7.6%
NUCLEATED RED BLOOD CELLS (120 h, time 5 day): 0 /100WBC
PLATELET COUNT (120 h, time 5 day): 1294.2 x10E3/uL
ALANINE AMINOTRANSFERASE (120 h, time 5 day): 42 u/L
ALBUMIN (120 h, time 5 day): 4.16 G/DL
ALKALINE PHOSPHATASE (120 h, time 5 day): 348.4 u/L
ASPARTATE AMINOTRANSFERASE (120 h, time 5 day): 67.4 u/L
BLOOD UREA NITROGEN (120 h, time 5 day): 17.8 mg/dL
CARBON DIOXIDE (120 h, time 5 day): 29.6 mmol/L
CHLORIDE (120 h, time 5 day): 102 MEQ/L
CHOLESTEROL (120 h, time 5 day): 83 mg/dL
CREATININE (120 h, time 5 day): 0.15 mg/dL
GLUCOSE (120 h, time 5 day): 156 mg/dL
LACTATE DEHYDROGENASE (120 h, time 5 day): 129.8 u/L
LIPASE (120 h, time 5 day): 9.8 u/L
PHOSPHORUS (120 h, time 5 day): 14.22 mg/dL
POTASSIUM (120 h, time 5 day): 6.78 MEQ/L
SODIUM (120 h, time 5 day): 146.28 MEQ/L
TOTAL BILIRUBIN (120 h, time 5 day): 0.14 mg/dL
TOTAL PROTEIN (120 h, time 5 day): 6 G/DL
URIC ACID (120 h, time 5 day): 1.88 mg/dL
